Assay results as given in patent US20170022171A1, “2,5-DISUBSTITUTED CYCLOPENTANECARBOXYLIC ACIDS AND THEIR USE” (Bayer Pharma Aktiengesellschaft, priority 2014, published 2017).

biological target: T1, mouse MMP-3 (Mus musculus, UniProt P28862); test: In vitro mouse MMP-3 inhibition test; format: biochemical
T1 construct: purchased R&D Systems 548-MP
Source text: The MMP-mediated amidolytic cleavage of a suitable peptide substrate leads to an increase in fluorescent light here too. The signal intensity of the fluorescent light is directly proportional to the enzyme activity. The active concentration of a test compound at which half the enzyme is inhibited (50% signal intensity of the fluorescent light) is reported as the IC50 value.
Recombinant mouse MMP-3 (from R&D Systems, 548-MP) is chemically activated in accordance with the manufacturer's instructions using APMA. 1 μl of the test compound to be analysed (as a solution in DMSO, suitable concentrations, for example, 1 nM to 30 μM) is pipetted into 24 μl of activated enzyme (final concentration, for example, 0.5 nM) in reaction buffer (50 mM Tris/HCl pH 7.5, 10 mM CaCl2, 150 mM NaCl, 0.05% Brij®-35) in a white 384-hole microtiter plate (MTP). The enzymatic reaction is started by adding the intramolecularly quenched Mca-Arg-Pro-Lys-Pro-Val-Glu-Nval-Trp-Arg-Lys(Dnp)-NH2 substrate (final concentration, for example, 5 μM; R&D Systems, ES-002), so as to result in a total test volume of 50 μl. The course of the MMP-3 reaction is measured by measuring the fluorescence intensity (excitation 320 nm, emission 410 nm) over a suitable period of time (for example over 120 min at a temperature of 32° C.).

T1 sequence (P28862 100-477): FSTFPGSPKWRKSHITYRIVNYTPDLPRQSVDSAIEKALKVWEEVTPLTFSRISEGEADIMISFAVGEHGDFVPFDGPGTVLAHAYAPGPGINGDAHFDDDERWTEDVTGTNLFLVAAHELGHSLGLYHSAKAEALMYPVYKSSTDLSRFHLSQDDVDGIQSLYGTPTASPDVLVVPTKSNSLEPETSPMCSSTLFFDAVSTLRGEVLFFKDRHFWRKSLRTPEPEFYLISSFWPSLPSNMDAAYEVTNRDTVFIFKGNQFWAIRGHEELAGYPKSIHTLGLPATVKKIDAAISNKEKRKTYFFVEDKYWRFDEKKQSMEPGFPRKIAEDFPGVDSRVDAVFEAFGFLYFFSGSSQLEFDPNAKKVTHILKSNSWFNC

| IC50 [µM] | Compound |
| --- | --- |
| 1.4 | O=C(O)[C@@H]1[C@@H](Cn2nnc3ccc(C(F)(F)F)cc3c2=O)CC[C@H]1C(=O)c1ccc(SCc2cccc(Cl)c2)cc1 (single isomer, unassigned) [Example 77, (+)-(1RS,2RS,5SR)-2-{4-[(3-Chlorobenzyl)sulphanyl]benzoyl}-5-{[4-oxo-6-(trifluoromethyl)-1,2,3-benzotriazin-3(4H)-yl]methyl}cyclopentanecarboxylic acid] |
| 5.9 | (+)-(1RS,2SR,5RS)-2-{[4-Oxo-6-(trifluoromethyl)-1,2,3-benzotriazin-3(4H)-yl]methyl}-5-{4-[(2-phenylethy)sulphanyl]benzoyl}cyclopentanecarboxylic acid [Example 83] |
| 4.6 | Cc1cccc(COc2ccc(C(=O)[C@H]3CC[C@@H](Cn4nnc5ccc(C)cc5c4=O)[C@@H]3C(=O)O)cc2)c1 (racemic) [Example 97, (+/−)-(1RS,2RS,5SR)-2-{4-[(3-Methylbenzyl)oxy]benzoyl}-5-[(6-methyl-4-oxo-1,2,3-benzotriazin-3(4H)-yl)methyl]cyclopentanecarboxylic acid] |
| 0.18 | O=C(O)[C@H]1[C@H](Cn2nnc3ccc(C(F)(F)F)cc3c2=O)CC[C@@H]1C(=O)c1ccc(OCC2CCCCC2)cc1 (racemic) [Example 40, (+/−)-(1RS,2RS,5SR)-2-[4-(Cyclohexylmethoxy)benzoyl]-5-{[4-oxo-6-(trifluoromethyl)-1,2,3-benzotriazin-3(4H)-yl]methyl}cyclopentanecarboxylic acid] |
| 2.4 | Cc1ccc2nnn(C[C@H]3CC[C@@H](C(=O)c4ccc(OCc5cccc(OC(F)(F)F)c5)cc4)[C@@H]3C(=O)O)c(=O)c2c1 (single isomer, unassigned) [Example 110, (+)-(1RS,2SR,5RS)-2-[(6-Methyl-4-oxo-1,2,3-benzotriazin-3(4H)-yl)methyl]-5-(4-{[3-(trifluoromethoxy)benzyl]oxy}benzoyl)cyclopentanecarboxylic acid] |
| 8.2 | (+)-(1RS,2RS,5SR)-2-{4-[(3,4-Dichlorobenzyl)oxy]benzoyl}-5-{[4-oxo-6-(trifluoromethyl)-1,2,3-benzotriazin-3(4H)-yl]methyl}cyclopentanecarboxylic acid [Example 28] |
| 0.49 | Cc1ccc2nnn(C[C@H]3CC[C@@H](C(=O)c4ccc(OCc5cccc(Cl)c5)cc4)[C@@H]3C(=O)O)c(=O)c2c1 (single isomer, unassigned) [Example 104, (+)-(1RS,2RS,5SR)-2-{4-[(3-Chlorobenzyl)oxy]benzoyl}-5-[(6-methyl-4-oxo-1,2,3-benzotriazin-3(4H)-yl)methyl]cyclopentanecarboxylic acid] |
| 1.3 | O=C(O)[C@H]1[C@H](Cn2nnc3ccccc3c2=O)CC[C@@H]1C(=O)c1ccc(OCC2CCCC2)cc1 (racemic) [Example 4, (+/−)-(1RS,2RS,5SR)-2-[4-(Cyclopentylmethoxy)benzoyl]-5-[(4-oxo-1,2,3-benzotriazin-3(4H)-yl)methyl]cyclopentanecarboxylic acid] |
| 0.16 | O=C(O)[C@H]1[C@H](Cn2nnc3ccccc3c2=O)CC[C@@H]1C(=O)c1ccc(OCc2ccc(F)cc2)cc1 (racemic) [Example 1, (+/−)-(1RS,2RS,5SR)-2-{4-[(4-Fluorobenzyl)oxy]benzoyl}-5-[(4-oxo-1,2,3-benzotriazin-3(4H)-yl)methyl]cyclopentanecarboxylic acid] |
| 0.73 | Cc1cccc(COc2ccc(C(=O)[C@@H]3CC[C@H](Cn4nnc5ccc(C)cc5c4=O)[C@H]3C(=O)O)cc2)c1 (single isomer, unassigned) [Example 98, (+)-(1RS,2RS,5SR)-2-{4-[(3-Methylbenzyl)oxy]benzoyl}-5-[(6-methyl-4-oxo-1,2,3-benzotriazin-3(4H)-yl)methyl]cyclopentanecarboxylic acid] |
| 9.3 | O=C(O)[C@H]1[C@H](Cn2nnc3ccc(C(F)(F)F)cc3c2=O)CC[C@@H]1C(=O)c1ccc(SCc2ccc(Cl)c(Cl)c2)cc1 (racemic) [Example 79, (+/−)-(1RS,2RS,5SR)-2-{4-[(3,4-Dichlorobenzyl)sulphanyl]benzoyl}-5-{[4-oxo-6-(trifluoromethyl)-1,2,3-benzotriazin-3(4H)-yl]methyl}cyclopentanecarboxylic acid] |
| 3.9 | COC(=O)Nc1cccc(COc2ccc(C(=O)[C@@H]3CC[C@H](Cn4nnc5ccc(C(F)(F)F)cc5c4=O)[C@H]3C(=O)O)cc2)c1 (stereo in doubt) [Example 31, (+)-(1RS,2RS,5SR)-2-[4-({3-[(Methoxycarbonyl)amino]benzyl}oxy)benzoyl]-5-{[4-oxo-6-(trifluoromethyl)-1,2,3-benzotriazin-3(4H)-yl]methyl}cyclopentanecarboxylic acid] |
| 0.79 | O=C(O)[C@@H]1[C@@H](Cn2nnc3ccc(C(F)(F)F)cc3c2=O)CC[C@H]1C(=O)c1ccc(OCC2CCCCC2)cc1 (single isomer, unassigned) [Example 41, (+)-(1RS,2RS,5SR)-2-[4-(Cyclohexylmethoxy)benzoyl]-5-{[4-oxo-6-(trifluoromethyl)-1,2,3-benzotriazin-3(4H)-yl]methyl}cyclopentanecarboxylic acid] |
| 1.8 | CCCCCOc1ccc(C(=O)[C@H]2CC[C@@H](Cn3nnc4ccc(C)cc4c3=O)[C@@H]2C(=O)O)cc1 (racemic) [Example 123, (+/−)-(1RS,2SR,5RS)-2-[(6-Methyl-4-oxo-1,2,3-benzotriazin-3(4H)-yl)methyl]-5-[4-(pentyloxy)benzoyl]cyclopentanecarboxylic acid] |
| 1.9 | O=C(O)[C@H]1[C@H](Cn2nnc3ccccc3c2=O)CC[C@@H]1C(=O)c1ccc(OCc2ccc(Cl)c(Cl)c2)cc1 (racemic) [Example 3, (+/−)-(1RS,2RS,5SR)-2-{4-[(3,4-Dichlorobenzyl)oxy]benzoyl}-5-[(4-oxo-1,2,3-benzotriazin-3(4H)-yl)methyl]cyclopentanecarboxylic acid] |
| 0.47 | Cc1ccc2nnn(C[C@H]3CC[C@@H](C(=O)c4ccc(OCC5CCCCC5)cc4)[C@@H]3C(=O)O)c(=O)c2c1 (single isomer, unassigned) [Example 117, (+)-(1RS,2RS,5SR)-2-[4-(Cyclohexylmethoxy)benzoyl]-5-[(6-methyl-4-oxo-1,2,3-benzotriazin-3(4H)-yl)methyl]cyclopentanecarboxylic acid] |
| 1.8 | Cc1ccc2nnn(C[C@@H]3CC[C@H](C(=O)c4ccc(OCc5cccc(C(F)(F)F)c5)cc4)[C@H]3C(=O)O)c(=O)c2c1 (racemic) [Example 100, (+/−)-(1RS,2SR,5RS)-2-[(6-Methyl-4-oxo-1,2,3-benzotriazin-3(4H)-yl)methyl]-5-(4-{[3-(trifluoromethyl)benzyl]oxy}benzoyl)cyclopentanecarboxylic acid] |
| 8 | O=C(O)[C@@H]1[C@@H](Cn2nnc3ccc(C(F)(F)F)cc3c2=O)CC[C@H]1C(=O)c1ccc(OCc2cccc(Cl)c2)cc1 (single isomer, unassigned) [Example 23, (+)-(1RS,2RS,5SR)-2-{4-[(3-Chlorobenzyl)oxy]benzoyl}-5-{[4-oxo-6-(trifluoromethyl)-1,2,3-benzotriazin-3(4H)-yl]methyl}cyclopentanecarboxylic acid] |
| 1.3 | O=C(O)[C@H]1[C@H](Cn2nnc3ccccc3c2=O)CC[C@@H]1C(=O)c1ccc(OCc2cccc(Cl)c2)cc1 (racemic) [Example 2, (+/−)-(1RS,2RS,5SR)-2-{4-[(3-Chlorobenzyl)oxy]benzoyl}-5-[(4-oxo-1,2,3-benzotriazin-3(4H)-yl)methyl]cyclopentanecarboxylic acid] |
| > 40 | O=C(O)[C@H]1[C@H](Cn2nnc3ccc(C(F)(F)F)cc3c2=O)CC[C@@H]1C(=O)c1ccc(OCCCC2CCCCC2)cc1 (racemic) [Example 56, (+/−)-(1RS,2RS,5SR)-2-{4-(3-Cyclohexylpropoxy)benzoyl}-5-{[4-oxo-6-(trifluoromethyl)-1,2,3-benzotriazin-3(4H)-yl]methyl}cyclopentanecarboxylic acid] |
| 6.9 | O=C(O)[C@@H]1[C@@H](Cn2nnc3ccc(C(F)(F)F)cc3c2=O)CC[C@H]1C(=O)c1ccc(OCCC2CCCCC2)cc1 (single isomer, unassigned) [Example 52, (+)-(1RS,2RS,5SR)-2-[4-(2-Cyclohexylethoxy)benzoyl]-5-{[4-oxo-6-(trifluoromethyl)-1,2,3-benzotriazin-3(4H)-yl]methyl}cyclopentanecarboxylic acid] |
